Results reported in patent US9303019B2, “Amino-pyrroline derivatives, and use thereof in the prevention and/or treatment of metabolic syndrome” (UNIVERSITE DE STRASBOURG, priority 2012, dated 2016).
Counter-ions that a name gives are not always drawn.

Key:
I1 receptor [1] = molecular target: I1 receptor (Mus musculus, UniProt Q80TM9); assay: Competitive binding to [125I]-PIC in membranes of 3T3 adipocytes; design: species or system murine; settings: 3T3 cell membranes
Experimental: The adipocytes were washed twice with ice-cold PBS, harvested and homogenized in 25 mM Tris-HCl buffer, pH 7.5, 1 mM EDTA. The homogenates were centrifuged at 20,000×g for 15 min at 4° C. and the supernatant stored at −80° C. until use. The residues were re-suspended in 25 mM Tris-HCl buffer, pH 7.5, 1 mM EDTA and stored at −80° C. […]
The reaction was halted by rapid vacuum filtration through GF/B fibre glass filters treated with 0.3% PEI using filtering equipment of Brandel® type, followed by three rapid washings of the filters using 3 ml of ice-cold 50 mM Tris-HCl buffer, pH 7.4. The radioactivity retained on the dried filters was determined using a Minaxi gamma counter (Packard, Meriden, CT, USA). Non-specific binding was determined by [^125I]PIC binding in the presence of 10 μM PIC and represented about 43% of total radioactivity.

α2-adrenergic receptors = assay: Binding assay of the α2-adrenergic receptors on CHO cell membranes with [3H]RX821002; design: species or system human; settings: CHO cells
Experimental: These membranes (30 μg proteins/ml for CHO-hα2A and CHO-hα2B, 100 μg protein/ml for CHO-hα2C) were incubated for 60 min at ambient temperature in binding buffer (33 mM Tris-HCl, 1 mM EDTA, pH 7.5) in a final volume of 500 μL containing 0.8 or 1 or 2 nM [^3H]RX821002 respectively for the adrenergic receptors hα2A, hα2B and hα2C.
Incubation was halted by rapid vacuum filtration through GF/C glass fibre filters followed by three successive washings in ice-cold binding buffer.
Non-specific binding was determined using 10 μM phentolamine.
(§1) The competitive assays were analyzed by non-linear regression using the GraphPad programme.
(§2) Ki values were determined using the method described by Cheng and Prussof (Cheng, Y. C.; Prusoff, W. H. Relationship between the Inhibition Constant (Ki) and the Concentration of Inhibitor which causes 50 percent Inhibition (I50) of an Enzymatic Reaction. Biochem. Pharmacol. 1973, 22, 3099-3108).

3T3-L1 adipocytes = assay: Secretion of adiponectin by differentiated 3T3-L1 adipocytes (ELISA); assay type: cell-based, murine
Experimental: 3T3-L1 murine preadipocytes were cultured to confluence at 37° C. in DMEM medium containing 4.5 g/litre of D-glucose, 10% FCS and antibiotics. At confluence, differentiation of the 3T3-L1 adipocytes was initiated through the addition over 48 h of a mixture containing 100 μM methyl-isobutylxanthine, 100 nm dexamethasone and 175 nM insulin. The cells were then passaged every 2-3 days in DMEM, 10% FCS and 175 nM insulin. More than 95% of cells had the phenotype of mature adipocytes 10 days after confluence was reached.
To determine the secretion of adiponectin by mature adipocytes, differentiated 3T3-L1 adipocytes (10 days after confluence) were placed in culture in 12-well plates and washed three times with DMEM, then cultured for 6 h in DMEM alone, in the absence or presence of 3 μM of compound 1. In some wells the antagonist selective for the imidazoline receptors I1, efaroxan, was added (100 μM) 30 min before exposure to compound 1.
The culture medium was then recovered, centrifuged for 3 min at 10 000 g to remove cell contaminants, and the supernatant was stored at −80° C. until use. After two washings in cold PBS, the adipocytes were collected in PBS, homogenized and stored at −80° C. An aliquot of adipocyte homogenate was stored for protein determination. The adiponectin was measured using an ELISA kit following the manufacturer's recommendations. The adiponectin concentration was normalized with the cell protein content.

I1 receptor [2] = molecular target: I1 receptor (Homo sapiens, UniProt Q9Y2I1); assay: Specific binding assay of the I1 receptor on human platelets with [125I]LNP 911
Experimental: Binding assays were performed at 37° C. using [^125I]LNP 911 as radioligand following the general procedure described but adapted to washed whole platelets (Greney, H.; Urosevic, D.; Schann, S.; Dupuy, L.; Bruban, V.; Ehrhardt, J,-D.; Bousquet, P.; Dontenwill, M. [^125I]2-(2-Chloro-4-iodo-phenylamino)-5-methyl-pyrroline (LNP911), a High-Affinity Radioligand Selective for I1 Imidazoline Receptors. Mol. Pharmacol. 2002, 62, 181-191).
Incubation was initiated through the addition of 900 to 950 μl of platelet suspension at a concentration of 500000/μl in a final volume of 1 ml Tyrode albumin and was performed at 37° C. for 5 min (equilibrium conditions). The competitive assays were conducted using a single concentration of radioligand ([…], 200 000 cpm), in the presence of increasing concentrations of suitable non-labelled ligand. Non-specific binding was determined by the binding of [^125I]LNP 911 in the presence of 100 nM of non-labelled LNP 911 and represented about 10% of total radioactivity when […] of [^125I]LNP 911 were used.
The reaction was halted by rapid vacuum filtration through GF/C fibre glass filters followed by five rapid washings of the filters with 3 ml of ice-cold Tyrode ([…], pH 7.35). Radioactivity was measured using a gamma counter (Wallac 1410).
as §1, §2

I1 receptor (Homo sapiens, UniProt Q9Y2I1), sequence (Q9Y2I1 2-1504 limits assumed): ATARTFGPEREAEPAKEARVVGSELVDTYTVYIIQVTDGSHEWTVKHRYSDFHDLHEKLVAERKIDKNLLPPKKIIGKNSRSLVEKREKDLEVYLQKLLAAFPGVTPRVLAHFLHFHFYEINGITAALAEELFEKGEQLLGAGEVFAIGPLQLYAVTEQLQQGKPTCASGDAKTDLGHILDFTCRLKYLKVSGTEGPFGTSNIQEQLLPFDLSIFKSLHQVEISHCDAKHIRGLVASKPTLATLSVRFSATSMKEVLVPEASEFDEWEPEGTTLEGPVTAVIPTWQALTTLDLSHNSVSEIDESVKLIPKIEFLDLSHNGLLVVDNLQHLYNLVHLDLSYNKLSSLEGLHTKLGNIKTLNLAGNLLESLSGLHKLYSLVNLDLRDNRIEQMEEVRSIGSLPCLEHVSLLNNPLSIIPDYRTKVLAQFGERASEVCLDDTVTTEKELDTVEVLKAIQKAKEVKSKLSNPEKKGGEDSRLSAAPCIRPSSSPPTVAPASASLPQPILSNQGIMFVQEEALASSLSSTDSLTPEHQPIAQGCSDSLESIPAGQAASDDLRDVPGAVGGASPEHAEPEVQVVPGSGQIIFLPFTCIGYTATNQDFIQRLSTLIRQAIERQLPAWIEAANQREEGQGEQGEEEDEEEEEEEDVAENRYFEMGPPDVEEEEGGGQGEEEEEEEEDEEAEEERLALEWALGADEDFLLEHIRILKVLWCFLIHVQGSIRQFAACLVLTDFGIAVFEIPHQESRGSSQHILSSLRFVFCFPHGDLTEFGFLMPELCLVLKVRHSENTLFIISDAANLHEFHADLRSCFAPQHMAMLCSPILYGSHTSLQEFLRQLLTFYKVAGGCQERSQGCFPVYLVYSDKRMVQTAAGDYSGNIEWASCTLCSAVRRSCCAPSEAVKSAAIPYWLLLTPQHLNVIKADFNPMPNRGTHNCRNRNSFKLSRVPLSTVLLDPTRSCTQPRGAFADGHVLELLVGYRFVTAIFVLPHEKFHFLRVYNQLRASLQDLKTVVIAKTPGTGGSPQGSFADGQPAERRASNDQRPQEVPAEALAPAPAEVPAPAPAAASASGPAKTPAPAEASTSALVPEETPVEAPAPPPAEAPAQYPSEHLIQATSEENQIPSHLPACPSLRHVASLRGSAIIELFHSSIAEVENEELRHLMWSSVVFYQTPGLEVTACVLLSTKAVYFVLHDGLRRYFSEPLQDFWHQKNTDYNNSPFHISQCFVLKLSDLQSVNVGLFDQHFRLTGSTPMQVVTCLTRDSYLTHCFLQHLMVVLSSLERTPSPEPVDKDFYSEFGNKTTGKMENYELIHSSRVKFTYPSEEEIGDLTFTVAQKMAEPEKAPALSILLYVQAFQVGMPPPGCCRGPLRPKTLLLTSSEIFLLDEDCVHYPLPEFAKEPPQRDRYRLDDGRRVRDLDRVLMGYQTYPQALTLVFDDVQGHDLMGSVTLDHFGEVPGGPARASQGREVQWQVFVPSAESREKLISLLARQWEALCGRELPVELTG
I1 receptor (Mus musculus, UniProt Q80TM9), sequence (Q80TM9 whole entry, looked up): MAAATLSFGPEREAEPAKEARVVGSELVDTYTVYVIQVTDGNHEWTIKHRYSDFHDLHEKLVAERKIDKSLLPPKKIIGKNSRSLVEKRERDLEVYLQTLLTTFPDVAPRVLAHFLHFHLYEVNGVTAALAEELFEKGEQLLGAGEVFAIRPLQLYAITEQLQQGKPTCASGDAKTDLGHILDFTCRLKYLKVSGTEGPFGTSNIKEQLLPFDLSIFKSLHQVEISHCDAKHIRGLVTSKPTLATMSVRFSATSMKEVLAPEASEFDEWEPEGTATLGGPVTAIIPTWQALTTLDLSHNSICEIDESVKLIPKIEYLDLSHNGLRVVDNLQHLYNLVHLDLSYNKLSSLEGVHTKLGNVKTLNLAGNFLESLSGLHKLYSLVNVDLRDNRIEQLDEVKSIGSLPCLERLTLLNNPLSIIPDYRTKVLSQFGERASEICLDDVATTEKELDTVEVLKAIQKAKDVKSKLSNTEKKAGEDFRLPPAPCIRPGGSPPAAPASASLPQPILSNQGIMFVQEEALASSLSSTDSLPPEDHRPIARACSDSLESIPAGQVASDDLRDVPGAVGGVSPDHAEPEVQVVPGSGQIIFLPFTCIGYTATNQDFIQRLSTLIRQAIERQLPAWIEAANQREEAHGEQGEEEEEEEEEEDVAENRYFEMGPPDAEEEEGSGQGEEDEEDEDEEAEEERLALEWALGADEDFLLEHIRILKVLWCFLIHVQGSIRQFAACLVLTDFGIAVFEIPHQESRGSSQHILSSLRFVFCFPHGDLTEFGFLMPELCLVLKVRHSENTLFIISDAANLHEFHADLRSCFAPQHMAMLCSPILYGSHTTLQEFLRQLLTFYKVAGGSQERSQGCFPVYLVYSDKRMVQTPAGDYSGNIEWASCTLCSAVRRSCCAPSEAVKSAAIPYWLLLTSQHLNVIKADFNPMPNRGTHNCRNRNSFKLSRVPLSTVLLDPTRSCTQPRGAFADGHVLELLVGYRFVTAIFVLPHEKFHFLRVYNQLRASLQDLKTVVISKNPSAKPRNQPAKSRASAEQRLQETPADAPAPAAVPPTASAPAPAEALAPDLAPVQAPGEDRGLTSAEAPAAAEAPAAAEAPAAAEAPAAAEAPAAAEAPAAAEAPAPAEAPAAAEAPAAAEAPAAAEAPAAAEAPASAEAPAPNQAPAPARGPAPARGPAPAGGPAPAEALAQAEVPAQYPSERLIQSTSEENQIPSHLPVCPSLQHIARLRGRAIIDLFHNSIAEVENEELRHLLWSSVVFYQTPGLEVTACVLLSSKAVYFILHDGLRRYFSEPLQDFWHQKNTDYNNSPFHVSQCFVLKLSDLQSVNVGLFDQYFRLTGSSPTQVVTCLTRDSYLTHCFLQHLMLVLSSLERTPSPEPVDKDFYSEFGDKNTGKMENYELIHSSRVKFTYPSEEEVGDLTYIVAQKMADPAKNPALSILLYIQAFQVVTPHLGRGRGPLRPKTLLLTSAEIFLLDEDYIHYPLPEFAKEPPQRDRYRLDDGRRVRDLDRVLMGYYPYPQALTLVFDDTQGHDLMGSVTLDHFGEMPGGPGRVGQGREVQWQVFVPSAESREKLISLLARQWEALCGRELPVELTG

Structure (SMILES) | Ki (α2-adrenergic receptors) [nM] | Ki (I1 receptor [2]) [nM] | other results
Clc1cccc(Cl)c1N=C1NCCN1 [clonidine] | – | – | share of total sites with high affinity (I1 receptor [1]): 57%
Cc1ccc(NC2=NCC(C)C2)c2c1CCC2 (stereo not drawn) [Compound 9, (7-Methyl-indan-4-yl)-(4-methyl-4,5-dihydro-3H-pyrrol-2-yl)-amine hydrochloride] | > 10000 | – | –
CCC1(C2=NCCN2)Cc2ccccc2O1 (stereo not drawn) [efaroxan] | – | – | secretion of adiponectin, efaroxan alone (3T3-L1 adipocytes; 100 μmol/l, control 212.6±19.1): 175.2±15.5 ng/ml/mg of proteins; secretion of adiponectin, pre-incubation with efaroxan before compound 1 (3T3-L1 adipocytes; efaroxan 100 μmol/l 30 min before compound 1 3 μmol/l, vs. 378±38 with compound 1 alone): 236±19.2 ng/ml/mg of proteins
CC1CCC(Nc2ccc(Cl)c3c2CCC3)=N1 (stereo not drawn) [Compound 20, (7-Chloro-indan-4-yl)-(5-methyl-4,5-dihydro-3H-pyrrol-2-yl)-amine hydrochloride] | > 10000 | 2.8 | –
CC1CCC(Nc2ccccc2Cl)=N1.Cl (stereo not drawn) [Compound 13, (2-Chlorophenyl)-(5-methyl-4,5-dihydro-3H-pyrrol-2-yl)-amine hydrochloride] | > 10000 | – | melting point: 173 to 174 °C
CC1CN=C(Nc2ccc(Cl)c3c2CCC3)C1 (stereo not drawn) [Compound 8, (7-Chloro-indan-4-yl)-(4-methyl-4,5-dihydro-3H-pyrrol-2-yl)-amine hydrochloride] | > 10000 | 0.22 | –
CC1CCC(Nc2cccc3c2CCC3)=N1 (stereo not drawn) [Compound 5, Indan-4-yl-(5-methyl-4,5-dihydro-3H-pyrrol-2-yl)-amine hydrochloride] | > 10000 | 19 | –
